From patent US20240043427A1 (Gilead Sciences, Inc., priority 2020, published 2024)

What was measured:
[1] = target: T1, CD73 (Homo sapiens (Human), UniProt P21589); test: MDA-MB-231 Cell Based CD73 Activity Assay; settings: MDA-MB-231-GFP cells, RPMI medium with 10% human plasma, 200 uM AMP
Experimental: MDA-MB-231 Cell Based CD73 Activity Assay
MDA-MB-231-GFP cells were seeded in 384-well plates (Greiner 781946) at a density of 10000 cells per well in 50 μL of RPMI medium with 10% HP (human plasma). Cells were plated into assay plate with compounds pre-spotted, for an overnight compound treatment. 50 μL of 400 μM AMP (final concentration 200 μM) using a Bio-tek dispenser. Plates were incubated for 100 mins. […] The samples were run using Rapid fire.

[2] = target: T1, CD73; test: MDA-MB-231 Cell Based CD73 Activity Assay (DMEM); settings: MDA-MB-231-GFP cells, DMEM medium with 10% human plasma, 200 uM AMP
[3] = target: T1, CD73; assay type: biochemical; settings: 1 mM NaH2PO4 in enzyme buffer, CD73 0.3 nM, AMP 15 uM

T1 sequence (P21589 27-574): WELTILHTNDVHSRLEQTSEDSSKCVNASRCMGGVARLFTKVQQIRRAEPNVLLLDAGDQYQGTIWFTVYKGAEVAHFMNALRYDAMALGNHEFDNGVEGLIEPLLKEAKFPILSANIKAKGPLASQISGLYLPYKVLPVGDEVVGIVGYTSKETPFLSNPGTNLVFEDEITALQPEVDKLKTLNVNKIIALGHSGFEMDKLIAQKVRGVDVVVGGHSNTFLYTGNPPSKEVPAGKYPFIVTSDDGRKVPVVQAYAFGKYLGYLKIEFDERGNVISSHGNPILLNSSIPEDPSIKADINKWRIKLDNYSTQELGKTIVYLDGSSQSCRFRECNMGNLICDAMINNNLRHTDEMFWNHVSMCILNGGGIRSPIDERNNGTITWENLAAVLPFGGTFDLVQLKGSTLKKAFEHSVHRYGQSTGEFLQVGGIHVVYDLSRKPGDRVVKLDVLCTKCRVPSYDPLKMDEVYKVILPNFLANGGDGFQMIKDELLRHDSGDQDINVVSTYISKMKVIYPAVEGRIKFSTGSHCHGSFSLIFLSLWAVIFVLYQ

Row | Compound | EC50 [1] | EC50 [2] | IC50 [3]
1 | O=c1[nH]cc(-c2cc([C@H]3C[C@@H]3c3ccc(OC(F)(F)F)cc3)c3nccn3n2)c(=O)[nH]1 (mixture of isomers) [Example 48, 5-(8-((1S,2S)-2-(4-(trifluoromethoxy)phenyl)cyclopropyl)imidazo[1,2-b]pyridazin-6-yl)pyrimidine-2,4(1H,3H)-dione and 5-(8-((1R,2R)-2-(4-(trifluoromethoxy)phenyl)cyclopropyl)imidazo[1,2-b]pyridazin-6-yl)pyrimidine-2,4(1H,3H)-dione] | 16.7 nM | – | –
2 | O=c1[nH]cc(-c2cc([C@H]3C[C@@H]3c3ccc(C(F)(F)F)c(F)c3)c3nccn3n2)c(=O)[nH]1 (mixture of isomers) [Example 100, 5-(8-((1S,2S)-2-(3-fluoro-4-(trifluoromethyl)phenyl)cyclopropyl)imidazo[1,2-b]pyridazin-6-yl)pyrimidine-2,4(1H,3H)-dione and 5-(8-((1R,2R)-2-(3-fluoro-4-(trifluoromethyl)phenyl)cyclopropyl)imidazo[1,2-b]pyridazin-6-yl)pyrimidine-2,4(1H,3H)-dione] | 27.5 nM | – | –
3 | COc1ccccc1[C@H]1C[C@@H]1c1cc(-c2c[nH]c(=O)[nH]c2=O)nn2ccnc12 (mixture of isomers) [Example 101, 5-(8-((1S,2S)-2-(2-methoxyphenyl)cyclopropyl)imidazo[1,2-b]pyridazin-6-yl)pyrimidine-2,4(1H,3H)-dione and 5-(8-((1R,2R)-2-(2-methoxyphenyl)cyclopropyl)imidazo[1,2-b]pyridazin-6-yl)pyrimidine-2,4(1H,3H)-dione] | 3.25 nM | – | –
4 | O=c1[nH]cc(-c2cc([C@H]3C[C@@H]3C3CC(F)(F)C3)c3nccn3n2)c(=O)[nH]1 (mixture of isomers) [Example 106, 5-(8-((1S,2R)-2-(3,3-difluorocyclobutyl)cyclopropyl)imidazo[1,2-b]pyridazin-6-yl)pyrimidine-2,4(1H,3H)-dione and 5-(8-((1R,2S)-2-(3,3-difluorocyclobutyl)cyclopropyl)imidazo[1,2-b]pyridazin-6-yl)pyrimidine-2,4(1H,3H)-dione] | 93.5 nM | – | –
5 | CC1(C)C(=O)N(CC(F)(F)F)c2cc([C@H]3C[C@@H]3c3cc(-c4c[nH]c(=O)[nH]c4=O)nn4c(F)cnc34)ccc21 [Example 702, 5-(8-((1S,2S)-2-(3,3-dimethyl-2-oxo-1-(2,2,2-trifluoroethyl)indolin-6-yl)cyclopropyl)-3-fluoroimidazo[1,2-b]pyridazin-6-yl)pyrimidine-2,4(1H,3H)-dione] | – | 0.26 nM | 1.7 nM
6 | CC1(C)C(=O)N(CC(F)(F)F)c2cc([C@H]3C[C@@H]3c3cc(-c4c[nH]c(=O)[nH]c4=O)nn4ccnc34)ccc21 [Example 703, 5-(8-((1S,2S)-2-(3,3-dimethyl-2-oxo-1-(2,2,2-trifluoroethyl)indolin-6-yl)cyclopropyl)imidazo[1,2-b]pyridazin-6-yl)pyrimidine-2,4(1H,3H)-dione] | – | 0.14 nM | 1.24 nM
7 | O=c1[nH]cc(-c2cc([C@H]3C[C@@H]3c3ccc4ccn(CC(F)(F)F)c4n3)c3nccn3n2)c(=O)[nH]1 [Example 704, 5-(8-((1S,2S)-2-(1-(2,2,2-trifluoroethyl)-1H-pyrrolo[2,3-b]pyridin-6-yl)cyclopropyl)imidazo[1,2-b]pyridazin-6-yl)pyrimidine-2,4(1H,3H)-dione] | – | 0.36 nM | 0.73 nM
8 | O=c1[nH]cc(-c2cc([C@H]3C[C@@H]3c3cc4c(ccn4CC(F)(F)F)cn3)c3nccn3n2)c(=O)[nH]1 [Example 705, 5-(8-((1S,2S)-2-(1-(2,2,2-trifluoroethyl)-1H-pyrrolo[3,2-c]pyridin-6-yl)cyclopropyl)imidazo[1,2-b]pyridazin-6-yl)pyrimidine-2,4(1H,3H)-dione] | – | 0.07 nM | 0.4 nM
9 | O=c1[nH]cc(-c2cc([C@H]3C[C@@H]3c3cc4c(cn3)c(F)cn4CC(F)(F)F)c3nccn3n2)c(=O)[nH]1 [Example 706, 5-(8-((1S,2S)-2-(3-fluoro-1-(2,2,2-trifluoroethyl)-1H-pyrrolo[3,2-c]pyridin-6-yl)cyclopropyl)imidazo[1,2-b]pyridazin-6-yl)pyrimidine-2,4(1H,3H)-dione] | – | 0.15 nM | 0.33 nM
10 | O=c1[nH]cc(-c2cc([C@H]3C[C@@H]3c3ccc4ccn(CC(F)(F)F)c(=O)c4c3)c3nccn3n2)c(=O)[nH]1 [Example 707, 5-(8-((1S,2S)-2-(1-oxo-2-(2,2,2-trifluoroethyl)-1,2-dihydroisoquinolin-7-yl)cyclopropyl)imidazo[1,2-b]pyridazin-6-yl)pyrimidine-2,4(1H,3H)-dione] | – | 8.88 nM | 2.65 nM
11 | O=c1[nH]cc(-c2cc([C@H]3C[C@@H]3c3ccc4c(c3)c(=O)ccn4CC(F)(F)F)c3nccn3n2)c(=O)[nH]1 [Example 708, 5-(8-((1S,2S)-2-(4-oxo-1-(2,2,2-trifluoroethyl)-1,4-dihydroquinolin-6-yl)cyclopropyl)imidazo[1,2-b]pyridazin-6-yl)pyrimidine-2,4(1H,3H)-dione] | – | 6.21 nM | 3.3 nM
12 | O=c1[nH]cc(-c2cc([C@H]3C[C@@H]3c3ccc4nccc(OCC(F)(F)F)c4c3)c3nccn3n2)c(=O)[nH]1 [Example 709, 5-(8-((1S,2S)-2-(4-(2,2,2-trifluoroethoxy)quinolin-6-yl)cyclopropyl)imidazo[1,2-b]pyridazin-6-yl)pyrimidine-2,4(1H,3H)-dione] | – | 0.4 nM | 1.24 nM
13 | O=c1[nH]cc(-c2cc([C@H]3C[C@@H]3c3ccc4cncc(OCC(F)(F)F)c4c3)c3nccn3n2)c(=O)[nH]1 [Example 710, 5-(8-((1S,2S)-2-(4-(2,2,2-trifluoroethoxy)isoquinolin-6-yl)cyclopropyl)imidazo[1,2-b]pyridazin-6-yl)pyrimidine-2,4(1H,3H)-dione] | – | 4.06 nM | 1.43 nM
14 | Cc1cc([C@H]2C[C@@H]2c2cc(-c3c[nH]c(=O)[nH]c3=O)nn3ccnc23)cc2c1cnn2CC(F)(F)F [Example 714, 5-(8-((1S,2S)-2-(4-methyl-1-(2,2,2-trifluoroethyl)-1H-indazol-6-yl)cyclopropyl)imidazo[1,2-b]pyridazin-6-yl)pyrimidine-2,4(1H,3H)-dione] | – | 0.19 nM | 0.7 nM
15 | O=C1N(CC(F)(F)F)c2cc([C@H]3C[C@@H]3c3cc(-c4c[nH]c(=O)[nH]c4=O)nc4ccnn34)ccc2C12CC2 [Example 715, 5-(7-((1S,2S)-2-(2′-oxo-1′-(2,2,2-trifluoroethyl)spiro[cyclopropane-1,3′-indolin]-6′-yl)cyclopropyl)pyrazolo[1,5-a]pyrimidin-5-yl)pyrimidine-2,4(1H,3H)-dione] | – | 0.32 nM | 1.42 nM
16 | O=c1[nH]cc(-c2cc([C@H]3C[C@@H]3c3ccc4cnn(CC(F)(F)F)c4c3)n3ncc(F)c3n2)c(=O)[nH]1 [Example 716, 5-(3-fluoro-7-((1S,2S)-2-(1-(2,2,2-trifluoroethyl)-1H-indazol-6-yl)cyclopropyl)pyrazolo[1,5-a]pyrimidin-5-yl)pyrimidine-2,4(1H,3H)-dione] | – | 0.28 nM | 0.35 nM
17 | O=c1[nH]cc(-c2cc([C@H]3C[C@@H]3c3cnc4c(F)nn(CC(F)(F)F)c4c3)c3nccn3n2)c(=O)[nH]1 [Example 717, 5-[8-[(1S,2S)-2-[3-fluoro-1-(2,2,2-trifluoroethyl)pyrazolo[4,3-b]pyridin-6-yl]cyclopropyl]imidazo[1,2-b]pyridazin-6-yl]-1H-pyrimidine-2,4-dione] | – | 0.26 nM | 0.69 nM
18 | O=c1[nH]cc(-c2cc([C@H]3C[C@@H]3c3cnc4c(F)nn(CC(F)(F)F)c4c3)c3ncc(Cl)n3n2)c(=O)[nH]1 [Example 719, 5-[3-chloro-8-[(1S,2S)-2-[3-fluoro-1-(2,2,2-trifluoroethyl)pyrazolo[4,3-b]pyridin-6-yl]cyclopropyl]imidazo[1,2-b]pyridazin-6-yl]-1H-pyrimidine-2,4-dione] | – | 0.46 nM | 0.51 nM
19 | O=c1[nH]cc(-c2cc([C@H]3C[C@@H]3c3ccc4c(F)nn(CC(F)(F)F)c4c3)c3ncc(Cl)n3n2)c(=O)[nH]1 [Example 721, 5-[3-chloro-8-[(1S,2S)-2-[3-fluoro-1-(2,2,2-trifluoroethyl)indazol-6-yl]cyclopropyl]imidazo[1,2-b]pyridazin-6-yl]-1H-pyrimidine-2,4-dione] | – | 0.32 nM | 0.77 nM
20 | CC1(C)C(=O)N(CC(F)(F)F)c2cc([C@H]3C[C@@H]3c3cc(-c4c[nH]c(=O)[nH]c4=O)nn4c(Cl)cnc34)ccc21 [Example 722, 5-[3-chloro-8-[(1S,2S)-2-[3,3-dimethyl-2-oxo-1-(2,2,2-trifluoroethyl)indolin-6-yl]cyclopropyl]imidazo[1,2-b]pyridazin-6-yl]-1H-pyrimidine-2,4-dione] | – | 0.58 nM | 1.1 nM
21 | CC1(C)C(=O)N(CC(F)(F)F)c2cc([C@H]3C[C@@H]3c3cc(-c4c[nH]c(=O)[nH]c4=O)nn4c(F)cnc34)cnc21 [Example 723, 5-[8-[(1S,2S)-2-[3,3-dimethyl-2-oxo-1-(2,2,2-trifluoroethyl)pyrrolo[3,2-b]pyridin-6-yl]cyclopropyl]-3-fluoro-imidazo[1,2-b]pyridazin-6-yl]-1H-pyrimidine-2,4-dione] | – | 1.04 nM | 2.75 nM
22 | O=c1[nH]cc(-c2cc(N3C[C@H](Oc4ccc(F)c(C(F)F)c4)C(F)(F)C3)c3nccn3n2)c(=O)[nH]1 [Example 745, (S)-5-(8-(4-(3-(difluoromethyl)-4-fluorophenoxy)-3,3-difluoropyrrolidin-1-yl)imidazo[1,2-b]pyridazin-6-yl)pyrimidine-2,4(1H,3H)-dione] | – | 0.69 nM | 0.62 nM
